Results reported in ChEMBL document CHEMBL1131037, “Structure-based design, synthesis, and biological evaluation of irreversible human rhinovirus 3C protease inhibitors. 2. Peptide structure-activity studies” (J Med Chem, 1998).

How the values were obtained:
[1] = system: rhinovirus B14; test: Cytotoxic activity against HRV-14 in cell culture; type: functional, rhinovirus 14; conditions: Rhinovirus B
[2] = molecular target: T1, Human rhinovirus A protease (Human rhinovirus sp.) (UniProt Q4U254); test: Binding affinity on human Rhinovirus 3C protease (rhinovirus serotype 14)
T1 sequence (whole entry): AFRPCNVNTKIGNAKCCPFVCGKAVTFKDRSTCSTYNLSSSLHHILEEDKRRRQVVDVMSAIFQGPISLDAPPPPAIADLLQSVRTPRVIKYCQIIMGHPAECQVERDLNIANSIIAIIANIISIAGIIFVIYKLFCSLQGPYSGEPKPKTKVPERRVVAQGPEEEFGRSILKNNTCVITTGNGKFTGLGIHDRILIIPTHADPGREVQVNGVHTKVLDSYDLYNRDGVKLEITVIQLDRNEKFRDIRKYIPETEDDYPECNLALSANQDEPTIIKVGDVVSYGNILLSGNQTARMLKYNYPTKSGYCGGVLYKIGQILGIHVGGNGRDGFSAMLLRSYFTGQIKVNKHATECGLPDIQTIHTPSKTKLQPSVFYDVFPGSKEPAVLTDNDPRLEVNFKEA

[3] = system: rhinovirus B14; test: Antiviral activity against HRV-14 in cell culture; type: functional, organism-based; conditions: Rhinovirus B

Compound	CC50 [1] [µM]	K obs / 1 [2] [M⁻¹ s⁻¹]	EC50 [3] [µM]
CCOC(=O)/C=C/[C@H](CCC(N)=O)NC(=O)[C@H](CC)NC(=O)[C@H](CC(C)C)NC(=O)OCc1ccccc1	> 320	4500	6
CCOC(=O)/C=C/[C@H](CCC(N)=O)NC(=O)OCc1ccccc1	> 100	4.5	> 100
CCOC(=O)/C=C/[C@H](CCC(N)=O)NC(=O)[C@H](Cc1ccccc1)NC(=O)[C@H](CCSC)NC(=O)OCc1ccccc1	> 100	46200	1.4
CCOC(=O)/C=C/[C@H](CCC(N)=O)NC(=O)[C@H](Cc1ccccc1)NC(=O)[C@H](CC(C)C)NC(=O)N(C)Cc1ccccc1	> 100	3200	5.6
CCOC(=O)/C=C/[C@H](CCC(N)=O)NC(=O)[C@H](Cc1ccccc1)NC(=O)[C@H](CC(C)C)NC(=O)C1CCCC1	> 320	23700	0.6
CCOC(=O)/C=C/[C@H](CCC(N)=O)NC(=O)[C@H](Cc1ccccc1)NC(=O)[C@H](CC(C)C)NC(=O)SC1CCCC1	> 100	114000	0.18
CCOC(=O)/C=C/[C@H](CCC(N)=O)NC(=O)[C@H](Cc1ccccc1)NC(=O)[C@H](CC(C)C)NC(=O)CO	> 320	2100	30
CCOC(=O)/C=C/[C@H](CCC(N)=O)NC(=O)[C@H](Cc1ccccc1)NC(=O)[C@H](CC(C)C)NC(C)=O	> 320	3700	14
CCOC(=O)/C=C/[C@H](CCC(N)=O)NC(=O)[C@H](Cc1ccccc1)NC(=O)[C@H](CC(C)C)NC(=O)[C@@H](NC(C)=O)C(C)C	> 100	26700	63
CCOC(=O)/C=C/[C@H](COC(N)=O)NC(=O)[C@H](Cc1ccccc1)NC(=O)[C@H](CC(C)C)NC(=O)OCc1ccccc1	> 320	5600	1.6
CCOC(=O)/C=C/[C@H](CCC(N)=O)NC(=O)[C@H](CCC(=O)O)NC(=O)[C@H](CC(C)C)NC(=O)OCc1ccccc1	> 320	200	> 320
CCOC(=O)/C=C/[C@H](CCC(N)=O)NC(=O)[C@H](Cc1ccccc1)NC(=O)OCc1ccccc1	> 100	400	5.6
CCOC(=O)/C=C/[C@H](CCC(N)=O)NC(=O)[C@H](Cc1ccccc1)NC(=O)[C@H](CC(C)C)NC(=O)SC	> 320	69800	1.1
CCOC(=O)/C=C/[C@H](CCC(N)=O)NC(=O)[C@H](Cc1ccccc1)NC(=O)[C@@H](NC(=O)OCc1ccccc1)C(C)C	> 320	62500	0.38
CCOC(=O)/C=C/[C@H](CCC(N)=O)NC(=O)[C@H](Cc1ccc(CO)cc1)NC(=O)[C@H](CC(C)C)NC(=O)OCc1ccccc1	> 320	82300	0.55
CCOC(=O)/C=C/[C@H](CCC(N)=O)NC(=O)[C@H](Cc1ccccc1)NC(=O)[C@H](CCCCN)NC(=O)OCc1ccccc1	> 320	18600	205
CCOC(=O)/C=C/[C@H](CCC(N)=O)NC(=O)[C@H](Cc1ncc[nH]1)NC(=O)[C@H](CC(C)C)NC(=O)OCc1ccccc1	> 320	6800	27
CCOC(=O)/C=C/[C@H](CCC(N)=O)NC(=O)[C@H](Cc1ccccc1)NC(=O)[C@H](CC(C)C)NC(=O)OC1CCCCC1	> 100	15500	7.6
CCOC(=O)/C=C/[C@H](CCC(N)=O)NC(=O)[C@H](CSCC)NC(=O)[C@H](CC(C)C)NC(=O)OCc1ccccc1	> 320	3000	10
CCOC(=O)/C=C/[C@H](CCC(N)=O)NC(=O)[C@H](Cc1ccccc1)NC(=O)[C@H](CO)NC(=O)OCc1ccccc1	> 320	39900	1.8

Compound	CC50 [1] [µM]	K obs / 1 [2] [M⁻¹ s⁻¹]	EC50 [3] [µM]
CCOC(=O)/C=C/[C@H](CCC(N)=O)NC(=O)[C@H](Cc1ccccc1)NC(=O)[C@H](CC(C)C)NC(=O)OCc1ccncc1	> 320	12000	56
CCOC(=O)/C=C/[C@H](CCC(N)=O)NC(=O)[C@H](Cc1ccccc1)NC(=O)[C@H](CC(C)C)NC(=O)c1ccccc1	> 320	9600	5.2
CCOC(=O)/C=C/[C@H](CCC(N)=O)NC(=O)[C@H](Cc1ccccc1)NC(=O)[C@H](CCCN1CCOCC1)NC(=O)OCc1ccccc1	> 100	43300	7.1
CCOC(=O)/C=C/[C@H](CCC(N)=O)NC(=O)[C@H](Cc1ccc(OCC)cc1)NC(=O)[C@H](CC(C)C)NC(=O)OCc1ccccc1	> 320	4200	> 320
CCOC(=O)/C=C/[C@H](CCC(N)=O)NC(=O)[C@H](Cc1ccccc1)NC(=O)[C@H](CC(C)C)NC(=O)NCc1ccccc1	> 100	6900	> 100
CCOC(=O)/C=C/[C@H](CCC(N)=O)NC(=O)[C@H](Cc1ccccc1)NC(=O)[C@@H](NC(=O)OCc1ccccc1)C1CCCCC1	> 100	36200	1
CCOC(=O)/C=C/[C@H](CCC(N)=O)NC(=O)C(NC(=O)[C@H](CC(C)C)NC(=O)OCc1ccccc1)[C@H](C)O (stereo not given in full)	> 320	1800	56
CCOC(=O)/C=C/[C@H](CCC(N)=O)NC(=O)[C@H](Cc1ccccc1)NC(=O)[C@H](CCN1CCOCC1)NC(=O)OCc1ccccc1	> 100	35000	5.1
CCOC(=O)/C=C/[C@H](CCC(N)=O)NC(=O)[C@H](Cc1ccccc1)NC(=O)[C@@H](NC(=O)OCc1ccccc1)[C@@H](C)CC	> 100	31700	0.79
CCOC(=O)/C=C/[C@H](CCC(N)=O)NC(=O)[C@H](Cc1ccccc1)NC(=O)[C@H](CCC(=O)O)NC(=O)OCc1ccccc1	> 320	78900	5.5
CCOC(=O)/C=C/[C@H](CCC(N)=O)NC(=O)[C@H](Cc1ccccc1)NC(=O)[C@H](CC(=O)N(C)C)NC(=O)OCc1ccccc1	> 320	22600	5.9
CCOC(=O)/C=C/[C@H](CNC(N)=O)NC(=O)[C@H](Cc1ccccc1)NC(=O)[C@H](CC(C)C)NC(=O)OCc1ccccc1	> 100	3500	32
CCOC(=O)/C=C/[C@H](CCC(N)=O)NC(=O)[C@H](CSC)NC(=O)[C@H](CC(C)C)NC(=O)OCc1ccccc1	> 320	2900	8.9
CCOC(=O)/C=C/[C@H](CCC(N)=O)NC(=O)[C@H](Cc1ccccc1)NC(=O)[C@@H](NC(=O)OCc1ccccc1)C(C)(C)O	> 100	98000	0.66
CCOC(=O)/C=C/[C@H](CCC(N)=O)NC(=O)[C@H](Cc1ccccc1)NC(=O)[C@H](C)NC(=O)OCc1ccccc1	> 320	11300	2
CCOC(=O)/C=C/[C@H](CCS(C)(=O)=O)NC(=O)[C@H](Cc1ccccc1)NC(=O)[C@H](CC(C)C)NC(=O)OCc1ccccc1	> 100	60	> 100
CCOC(=O)/C=C/[C@H](CCC(=O)NC)NC(=O)[C@H](Cc1ccccc1)NC(=O)[C@H](CC(C)C)NC(=O)OCc1ccccc1	> 100	750	5.6
CCOC(=O)/C=C/[C@H](CCC(N)=O)NC(=O)[C@H](Cc1ccccc1)NC(=O)[C@H](CC(C)C)NC(=O)OCc1ccccc1	> 320	–	0.54
CCOC(=O)/C=C/[C@H](CCC(N)=O)NC(=O)[C@H](Cc1ccc(C)cc1)NC(=O)[C@@H](NC(=O)SC1CCCC1)C(C)(C)C	–	–	0.056
CCOC(=O)/C=C/[C@H](CCC(N)=O)NC(=O)[C@H](Cc1ccccc1)NC(=O)[C@@H](NC(=O)OCc1ccccc1)c1ccccc1	–	20700	–
